Source: US7442532B2, “Essential fungal CaYLR100w polypeptides, and methods of use” (Bristol-Myers Squibb Company, priority 2003, dated 2008)
In brackets after ≈: the same amount, converted by molar mass.

How the values were obtained:
MET3P-ERG1 construct [1] = experiment: Sensitivity of the MET3P-ERG1 construct to antifungal drugs (MICs, 96-well format plate); assay type: cell-based, Candida albicans; conditions: for MIC: Candida albicans, at 20 hrs, MET3P-ERG1 construct; for sensitivity to the drug altered by the presence of methionine: drugs not known to be inhibitors of the CaERG1 product
Protocol: In order to assess whether cells containing the ERG1−MET promoter construct would display hypersensitivity to terbinafine upon the addition of methionine in comparison to cells for which no methionine was added, cells were grown in the 384 well-plate as described above. A final concentration of 0.05 mM methinone was added to wells within one plate of cells and a control plate, in which SD+His broth was added in lieu of methionine was added to a second plate. 8 μl of various concentrations of terbinafine in 10.26% DMSO was added to both the control and test plates. The concentrations of terbinafine added to different wells ranged from 163 μg/ml to 0.02 μg/ml. […] After the addition of this inhibitor, both the control and experimental plates were incubated at 35° C. After 18 hours of incubation, the OD readings were taken of the plates to measure cell growth (595 nm). […] Increased sensitivity of cells containing the ERG1−MET3 was confirmed in a separate experiment using a 96-well format plate.
Furthermore, results of additional experiments conducted with the drugs sordarin and fluconazole which are not known to be inhibitors of the CaERG1 polynucleotide product confirm that sensitivity to these drugs is not altered by the presence of methionine.

[2] = tested on: MET3 promoter-CaERG1 cells; experiment: Drug hypersensitivity whole cell assay, 384-well plate: MET3 promoter-CaERG1 cells with and without methionine; assay type: cell-based, Candida albicans; conditions: 0.05 mM methionine, 18 hours at 35° C, OD 595 nm, FIG. 10
Protocol: In order to determine if essential polynucleotide products could be reduced in fungal cells resulting in drug hypersensitivity, a high throughput whole cell assay was designed. The known C. albicans essential polynucleotide corresponding ERG1 polynucleotide in S. cervisiae was tested. CaERG 1 codes for squaline epoxidase and is known to be inhibited by terbinafine. The first polynucleotide copy was disrupted as described above and the second polynucleotide copy was modified by promoter swapping with MET3 promoter, also as described above.
The optimal cell density needed to control cell growth in a 384-well plate within the log phase after 18 hours incubation at 35° C. was first determined. […] At different time intervals, the plate was withdrawn from the incubator and the cell growth was determined by reading absorbance at 590 nm on a Perkin Elmer 7000 machine.
In order to assess whether cells containing the ERG1−MET promoter construct would display hypersensitivity to terbinafine upon the addition of methionine in comparison to cells for which no methionine was added, cells were grown in the 384 well-plate as described above. […] After 18 hours of incubation, the OD readings were taken of the plates to measure cell growth (595 nm). […]

[3] = tested on: ergosterol biosynthetic pathway in strain caerg1Δ/PMET3-CaERG1; experiment: Incorporation of labeled acetate into sterols (TLC, scintillation counting), control strain; assay type: cell-based, Candida albicans; conditions: FIG. 22A, lanes 1 and 2; 90 minute induction period
Protocol: (§1) Overnight cultures were diluted into fresh SD+histidine (His) broth and grown at 30° C. until logarithmic growth was established. Cultures were harvested by centrifugation. Cells were then separated into tubes at a final density of 0.25 OD600 containing either fresh SD+His broth or SD+His broth containing 5 mM methionine (Met) and 2.5 mM cysteine (Cys). At the end of either a 0.75, 1.5, 3 or 4.5 hour incubation period, the OD600 values of each tube were measured and cultures were adjusted to a density of 0.25 OD600 units per ml (2 mls per tube). Cultures were then pulsed with 2 μCi/tube of [^3H]-acetic acid for 60 minutes.
(§2) At the end of the labeling period, cells were pelleted and rinsed 1× with medium. The washed pellet was resuspended with 1 ml of 0.1 N HCl, transferred to glass screw-capped tubes, and incubated for 5 minutes at 85° C. […]
(§3) Dried samples were disolved in petroleum ether and spotted onto a 20 cm×20 cm silica gel 60 TLC plate. […] The location of radiolabeled spots on the TLC plate was determined by matching the exposed spots on the autoradiogram.
(§4) In order to quantitate the radioactivity associated with the ergosterol pathway products, the silica gel corresponding to the exposed spots was excised from the plate and mixed with 0.5 ml of water, then mixed with 5 mls of scintillation cocktail prior to scintillation counting. […]

[4] = tested on: ergosterol biosynthetic pathway in strain fcg5Δ/PMET3-FCG5; experiment: Incorporation of labeled acetate into sterols (TLC, scintillation counting), test strain; assay type: cell-based, Candida albicans; conditions: FIG. 22B; majority of the counts trapped in squalene
Protocol: as §1, §2, §3, §4

MET3P-ERG1 construct [5] = conditions: 0.5 mM methionine; growth monitored between 16 and 24 hours, OD 595 nm; FIG. 9
Protocol: Cells were diluted from these cultures to 757,002 cfu/ml in SD+His medium. 35 μl of the diluted cells were dispensed into wells of a 384-well plate containing 8 μl of 10.26% DMSO. […] Cell growth was monitored between 16 and 24 hours by reading the optical density at 595 nm.

Compound | MIC (MET3P-ERG1 construct [1]; absence of methionine) [µg/mL] | MIC (MET3P-ERG1 construct [1]; presence of methionine) [µg/mL] | sensitivity to the drug altered by the presence of methionine (MET3P-ERG1 construct [1]) | increase in sensitivity in the presence of methionine comparing to the no methionine control [2] | increase in sensitivity when promoter activity was down regulated by the presence of methionine (MET3P-ERG1 construct [1]; 96-well format plate, Table 7) | effect on ergosterol biosynthesis (TLC autoradiogram) [3] | effect on incorporation of radiolabelled acetate into ergosterol (TLC autoradiogram) [4] | reduction of cell growth (MET3P-ERG1 construct [5])
OC(Cn1cncn1)(Cn1cncn1)c1ccc(F)cc1F [Fluconazole] | 1 (≈ 3.27 µM) | 1 | not altered | – | – | – | – | –
CO[C@H]1[C@@H](O)[C@H](O)[C@H](OC[C@@]23C[C@@H]4[C@H](C)CC[C@H]4[C@@]4(C=O)CC2C=C(C(C)C)[C@@]34C(=O)O)O[C@@H]1C [Sordarin] | 0.5 (≈ 1.02 µM) | 0.5 | not altered | – | – | – | – | –
CN(C/C=C/C#CC(C)(C)C)Cc1cccc2ccccc12 [Terbinafine] | – | 0.5 | – | 4-8 fold | 16-32 fold | a block in ergosterol biosynthesis at squalene | blocked the incorporation of radiolabelled acetate into ergosterol | –
CSCC[C@H](N)C(=O)O [methionine] | – | – | – | – | – | – | – | approximately 50%
